Assay results published in patent US20040033940A1, “Cyclic hepta-peptide derivative from colonial ascidians, lissoclinum SP” (Pharma Mar, S.A., priority 2002, published 2004).
In brackets after ≈: the same amount, converted by molar mass. Starred links: 1 amine or outer side, 2 acyl side, 3 side chain; linkers in the order of their positions; H or OH if unused. Non-standard residues stand in square brackets, D forms with d. Residues, ends and D or L forms follow the SMILES beside them. *: point of attachment. X1 = O=C([C@@H]1CSC([C@H](Cc2ccccc2)N[*:1])=N1)[*:2]; Allyl(1,1-Me2) = C=CC(C)(C)*

How the values were obtained:
[1] = system: A-549 (monolayer culture of a human lung carcinoma)
Description: (§1) Cells were maintained in logarithmic phase of growth in Eagle's Minimum Essential Medium, with Earle's Balanced Salts, with 2.0 mM L-glutamine, with non-essential amino acids, without sodium bicarbonate (EMEM/neaa); supplemented with 10% Fetal Calf Serum (FCS), 10^−2 M sodium bicarbonate and 0.1 g/l penicillin-G+streptomycin sulfate.
(§2) The antitumor cells employed were P-388 (suspension culture of a lymphoid neoplasm from DBA-2 mouse), A-549 (monolayer culture of a human lung carcinoma), HT-29 (monolayer culture of a human colon carcinoma) and MEL-28 (monolayer culture of a human melanoma).
(§3) A-549, HT-29 and MEL-28 cells were seeded into 16 mm wells at 2×10^4 cells per well in 1 ml aliquots of MEM 10FCS containing the indicated concentration of drug. A separate set of cultures without drug was seeded as control growth to ensure that cells remained in exponential phase of growth. All determinations were carried in duplicate. After three days of incubation at 37° C., 10% CO2 in a 98% humid atmosphere, the wells were stained with 0.1% Crystal Violet. An approximate IC50 was determined by comparing the growth in wells with drug to the growth in wells control.

[2] = system: MEL-28 (monolayer culture of a human melanoma)
Description: as §1, §2, §3

[3] = system: P-388 (suspension culture of a lymphoid neoplasm from DBA-2 mouse)
Description: as §1
A simple screening procedure was carried out to determine and compare the antitumor activity of this compound, using an adapted form of the method described by Bergeron et al. [Biochem. Bioph. […] The antitumor cells employed were P-388 (suspension culture of a lymphoid neoplasm from DBA-2 mouse), A-549 (monolayer culture of a human lung carcinoma), HT-29 (monolayer culture of a human colon carcinoma) and MEL-28 (monolayer culture of a human melanoma).
P-388 cells were seeded into 16 mm wells at 1×10^4 cells per well in 1 ml aliquots of MEM 5FCS containing the indicated concentration of drug. A separate set of cultures without drug was seeded as control growth to ensure that cells remained in exponential phase of growth. All determinations were carried out in duplicate. After three days of incubation at 37° C., 10% CO2 in a 98% humid atmosphere, an approximate IC50 was determined by comparing the growth in wells with drug to the growth in wells control.

[4] = system: HT-29 (monolayer culture of a human colon carcinoma)
Description: as §1, §2, §3

SMILES: C=CC(C)(C)OC[C@@H]1NC(=O)[C@H]([C@@H](C)OC(C)(C)C=C)NC(=O)[C@@H]2CSC(=N2)[C@H](Cc2ccccc2)NC(=O)[C@@H]2CCCN2C(=O)[C@H](C)NC(=O)[C@H]([C@@H](C)CC)NC1=O [trunkamide A] (cyclo(AP[X1]T(Allyl(1,1-Me2))S(Allyl(1,1-Me2))I))
- IC50 A-549 [1]: 0.5 µg/mL (≈ 0.597 µM)
- IC50 MEL-28 [2]: 1.0 µg/mL (≈ 1.19 µM)
- IC50 P-388 [3]: 0.5 µg/mL (≈ 0.597 µM)
- IC50 HT-29 [4]: 0.5 µg/mL (≈ 0.597 µM)
